Assay results as given in paper PMC7037610, “Novel Cationic Prodrug of Ubiquinol-10 Enhances Intestinal Absorption via Efficient Formation of Nanosized Mixed-Micelles with Bile Acid Anions” (Molecules, 2020).
Several values for one entry are separate records, joined by “and”; a condition that tells them apart may be missing. Identical values can stand only once. Counter-ions that a name gives are not always drawn. Marks after values point to notes of the source that are not given here. Blank lines part the entries; values can stand above or below the compound they belong to.

Tests used:
[1] = set-up: method as in Japanese Pharmacopoeia monograph; conditions: ref Japanese Pharmacopoeia monograph, cited from earlier work
[2] = Water solubility; assay type: physicochemical; conditions: in water
Method: The aqueous solubility of each ester was determined by adding 20 μmol of each compound to 1 mL distilled water in amber test tubes and incubating the tubes at 25 ± 1 °C in a constant-temperature water bath. The test tubes were shaken for 24 h and the suspensions were centrifuged at 1250× g for 10 min. The supernatants were diluted 10-fold with distilled water and assayed by the HPLC method described in Section 3.9.1.
(§1) The Shimadzu HPLC system (Shimadzu, Kyoto, Japan) consisted of a pump (LC-10AD), an autoinjector (SIL-10ADvp), a UV detector (SPD-10Avp), and a column oven (CTO-10Avp). The eluent was monitored spectrophotometrically at 280 nm. Compounds were analyzed on a YMC-Pack C8 reversed-phase column (φ 4.6 × 250 mm, YMC Co., Ltd., Kyoto, Japan) protected by a µBondapak C18 Guard-Pak (Waters Co., Milford, MA, USA) with a degassed mobile phase of methanol and 2-propanol (850/150, v/v) at 0.8 mL/min. UqH-10 and Uq-10 were quantified using linear calibration curves of peak areas versus concentrations. UqH-10 was partly oxidized during the preparation procedure. Therefore, the sum of UqH-10 and Uq-10 represented total UqH-10. Retention times were: UqH-10, 11.6 min; UqH-ester derivatives, 13.2 min and Uq-10, 15.4 min.

[3] = Enzymatic hydrolysis of UqH-derivatives in rat liver microsomes; assay type: in vitro ADME; conditions: for Km / Vmax: pH 7.4, 37 °C
Method: (§2) The hydrolysis of esters was analyzed at 37 °C in phosphate buffered saline (PBS) containing commercially available rat or human liver microsomes (In Vitro Technologies, Inc., Baltimore, MD, USA). The microsomes (20 mg/mL) were adjusted to a protein concentration of 2 mg/mL and were preincubated at 37 °C for 5 min before adding the esters.
Stock solutions of esters were prepared in ethanol. The enzymatic reactions were initiated by adding 10 µL ester stock solution (final concentration 0.1–0.4 mM) and 50 μL PBS to 940 µL of preheated reaction medium containing rat or human liver microsomes in amber test tubes. These reactions were incubated at 37 °C and, at various times, 100 μL aliquots were removed and mixed with 100 µL 10% trichloroacetic acid. Samples were then vortex mixed for 2 min and 800 µL ethyl acetate was added, with vortex mixing for 5 min. The samples were centrifuged at 1250× g for 10 min. The 20 µL organic layer was analyzed by the HPLC system described in Section 3.9.1. The initial hydrolytic rate (mM UqH-10 formed per min) was calculated from the initial slope of a plot of UqH-10 concentration versus time.
as §1

[4] = Mixed-micellization with taurocholic acid (appearance of mixtures); assay type: physicochemical
Method: (§3) A solution of 20 mM UqH-DMG was prepared in distilled water and incubated at 36.5 °C until the solution was translucent. The solution was combined with 10 mM TCA aqueous solution in the final molar ratios of 1:0.5–10 UqH-DMG:TCA.

[5] = Enzymatic hydrolysis of UqH-derivatives in human liver microsomes; assay type: in vitro ADME; conditions: pH 7.4, 37 °C, Michaelis–Menten fit
Method: as §2
Stock solutions of esters were prepared in ethanol. The enzymatic reactions were initiated by adding 10 µL ester stock solution (final concentration 0.1–0.4 mM) and 50 μL PBS to 940 µL of preheated reaction medium containing rat or human liver microsomes in amber test tubes. […] The 20 µL organic layer was analyzed by the HPLC system described in Section 3.9.1. The initial hydrolytic rate (mM UqH-10 formed per min) was calculated from the initial slope of a plot of UqH-10 concentration versus time.
The Shimadzu HPLC system (Shimadzu, Kyoto, Japan) consisted of a pump (LC-10AD), an autoinjector (SIL-10ADvp), a UV detector (SPD-10Avp), and a column oven (CTO-10Avp). The eluent was monitored spectrophotometrically at 280 nm. Compounds were analyzed on a YMC-Pack C8 reversed-phase column (φ 4.6 × 250 mm, YMC Co., Ltd., Kyoto, Japan) protected by a µBondapak C18 Guard-Pak (Waters Co., Milford, MA, USA) with a degassed mobile phase of methanol and 2-propanol (850/150, v/v) at 0.8 mL/min. […]

[6] = Micellization of UqH-DMG in water (visual inspection, solubilizing point vs temperature); assay type: physicochemical; conditions: for Appearance of solution: 45 mM in water
Method: UqH-DMG was diluted to intended concentrations with milliQ water in glass tubes. The test tubes were incubated in a water bath equipped with a thermometer. The solution appearance was visually inspected and the solubilizing points were plotted on a concentration versus incubation temperature curve.

[7] = Particle size by dynamic light scattering (Zetasizer Nano ZS); assay type: physicochemical; conditions: mean ± SD
Method: as §3
The Z-average of diameters of the particles of aqueous solution of UqH-DMG prepared in a polystyrene cuvette in Section 3.7.1. above were determined by a Zetasizer Nano ZS (MALVERN, Worcestershire, UK). The measurements were performed three independent times for each sample.

[8] = system: esterases in rat liver microsomes; experiment: Effect of eserine on UqH-4-DMG hydrolysis in rat liver microsomes; assay type: biochemical; conditions: eserine 0–2.0 mM
Method: (§4) Effects of eserine on UqH-4-DMG hydrolysis in liver microsomes was also examined, using similar methods, with 50 µL eserine aqueous solution added, instead of PBS, to the mixtures with liver microsomes. Eserine was tested at 0–2.0 mM.

[9] = system: esterases in human liver microsomes; experiment: Effect of eserine on UqH-4-DMG hydrolysis in human liver microsomes; assay type: biochemical; conditions: eserine 0–2.0 mM
Method: as §4

[10] = calculated using generated UqH-10 levels after sequential hydrolysis

SMILES: COC1=C(OC)C(=O)C(C/C=C(\C)CC/C=C(\C)CC/C=C(\C)CC/C=C(\C)CC/C=C(\C)CC/C=C(\C)CC/C=C(\C)CC/C=C(\C)CC/C=C(\C)CCC=C(C)C)=C(C)C1=O [Uq-10, Ubiquinone-10]
Water solubility ([1]; even when diluted to this concentration): < 116 µM | Water solubility descriptor [1]: practically insoluble, or insoluble

SMILES: COc1c(O)c(C)c(C/C=C(\C)CC/C=C(\C)CC/C=C(\C)CC/C=C(\C)CC/C=C(\C)CC/C=C(\C)CC/C=C(\C)CC/C=C(\C)CC/C=C(\C)CCC=C(C)C)c(OC(=O)CN(C)C)c1OC [UqH-1-DMG]
Water solubility compared with UqH bis-ester (UqH-DMG) [2]: lower | Km ([3]; Michaelis–Menten fit): 4630 µM | Vmax ([3]; Michaelis–Menten fit): 8.21e-07 M/min

SMILES: CNC(=O)Oc1ccc2c(c1)[C@]1(C)CCN(C)[C@@H]1N2C [eserine, physostigmine sulfate]
Effect on UqH-4-DMG hydrolysis [8]: inhibited | Effect on UqH-4-DMG hydrolysis [9]: inhibited

Second part, led by results:

melting point: 179 to 181 °C
SMILES: COc1c(OC(=O)CN(C)C)c(C)c(C/C=C(\C)CC/C=C(\C)CC/C=C(\C)CC/C=C(\C)CC/C=C(\C)CC/C=C(\C)CC/C=C(\C)CC/C=C(\C)CC/C=C(\C)CCC=C(C)C)c(OC(=O)CN(C)C)c1OC (as salt: hydrochloride) [UqH-DMG, 2,3-dimethoxy-5-methyl-6-decaprenyl-benzene-1,4-bis-N,N–dimethyl glycinate]

Water solubility compared with UqH bis-ester (UqH-DMG) [2]: lower | Solubilization with taurocholic acid ([4]; 10-times molar-equivalents taurocholic acid): solubilized | Vmax/Km relative to UqH-1-DMG [3]: 8.9 fold | Km ([3]; Michaelis–Menten fit): 75.1 µM | Km [5]: 72.2 µM
SMILES: COc1c(O)c(C/C=C(\C)CC/C=C(\C)CC/C=C(\C)CC/C=C(\C)CC/C=C(\C)CC/C=C(\C)CC/C=C(\C)CC/C=C(\C)CC/C=C(\C)CCC=C(C)C)c(C)c(OC(=O)CN(C)C)c1OC [UqH-4-DMG]
Vmax ([3]; Michaelis–Menten fit): 1.19e-07 M/min | Vmax [5]: 1.23e-07 M/min

solubility at 24 h ([2]; distilled water, read-out: Water solubility (transparent solution in water at concentrations up to)): ≤ 5000 µM | Appearance of solution ([6]; 27.0 °C): opaque | Appearance of solution ([6]; 36.5 °C): transparent | Krafft's point ([6]; in water): around 36.5 °C | Appearance of mixture with taurocholic acid ([4]; UqH-DMG:TCA molar ratio 1:0.5): slightly cloudy | Appearance of mixture with taurocholic acid ([4]; UqH-DMG:TCA molar ratios 1:1 to 1:10): transparent | Z-average particle diameter ([7]; 20 mM in water, without TCA, prepared at 36.5 °C): 20.38 ± 0.14 nm and 20 nm | Z-average particle diameter ([7]; UqH-DMG:TCA mixture at 1:1 molar ratio): 5.183 ± 0.033 nm and 5 nm | Km [3, 10]: 3890 µM
SMILES: COc1c(OC(=O)CN(C)C)c(C)c(C/C=C(\C)CC/C=C(\C)CC/C=C(\C)CC/C=C(\C)CC/C=C(\C)CC/C=C(\C)CC/C=C(\C)CC/C=C(\C)CC/C=C(\C)CCC=C(C)C)c(OC(=O)CN(C)C)c1OC [UqH-DMG, 2,3-dimethoxy-5-methyl-6-decaprenyl-benzene-1,4-bis-N,N–dimethyl glycinate]
Vmax [3, 10]: 0.603 ^a ×10^−6 M·min^−1
